Data as given in patent US10584117B2, “1,3,4-oxadiazole amide derivative compound as histone deacetylase 6 inhibitor, and pharmaceutical composition containing same” (Chong Kun Dang Pharmaceutical Corp., priority 2015, dated 2020).

Target: T1, human recombinant HDAC6 (Homo sapiens, UniProt Q9UBN7)
T1 construct: purchased Calbiochem 382180
T1 sequence (Q9UBN7 1-1215): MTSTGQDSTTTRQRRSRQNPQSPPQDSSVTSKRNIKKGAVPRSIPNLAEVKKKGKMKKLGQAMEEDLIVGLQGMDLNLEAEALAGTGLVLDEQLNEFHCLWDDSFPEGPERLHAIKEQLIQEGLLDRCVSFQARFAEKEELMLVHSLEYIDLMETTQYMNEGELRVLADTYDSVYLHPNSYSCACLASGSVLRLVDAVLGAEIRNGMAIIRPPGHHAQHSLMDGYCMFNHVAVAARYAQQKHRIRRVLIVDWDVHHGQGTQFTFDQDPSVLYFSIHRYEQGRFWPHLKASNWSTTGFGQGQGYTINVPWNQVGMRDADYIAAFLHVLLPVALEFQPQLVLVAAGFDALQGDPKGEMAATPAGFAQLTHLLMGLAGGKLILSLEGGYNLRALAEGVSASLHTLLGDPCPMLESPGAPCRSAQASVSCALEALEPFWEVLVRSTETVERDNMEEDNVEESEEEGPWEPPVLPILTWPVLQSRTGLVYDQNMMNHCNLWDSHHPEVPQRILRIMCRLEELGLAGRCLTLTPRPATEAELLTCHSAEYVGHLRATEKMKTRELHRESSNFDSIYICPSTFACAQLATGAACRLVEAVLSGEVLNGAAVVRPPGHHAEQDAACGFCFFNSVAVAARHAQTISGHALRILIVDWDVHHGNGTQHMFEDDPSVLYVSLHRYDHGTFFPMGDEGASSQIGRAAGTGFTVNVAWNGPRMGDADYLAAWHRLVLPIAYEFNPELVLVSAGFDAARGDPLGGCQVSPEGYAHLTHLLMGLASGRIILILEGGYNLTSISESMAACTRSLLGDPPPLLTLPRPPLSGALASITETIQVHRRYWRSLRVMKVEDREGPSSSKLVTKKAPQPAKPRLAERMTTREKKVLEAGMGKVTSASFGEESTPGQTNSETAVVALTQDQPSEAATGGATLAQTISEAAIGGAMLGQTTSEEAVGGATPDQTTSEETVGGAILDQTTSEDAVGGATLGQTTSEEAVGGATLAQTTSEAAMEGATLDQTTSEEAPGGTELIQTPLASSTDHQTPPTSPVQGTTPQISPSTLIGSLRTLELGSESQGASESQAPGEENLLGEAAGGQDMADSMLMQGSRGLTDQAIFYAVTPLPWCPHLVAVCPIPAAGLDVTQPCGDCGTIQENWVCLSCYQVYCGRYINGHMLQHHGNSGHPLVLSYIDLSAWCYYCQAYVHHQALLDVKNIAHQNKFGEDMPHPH
Assay: HDAC enzyme activity inhibition assay (HDAC6, fluorimetric kit)
Format: biochemical
Conditions: for HDAC6 selectivity (fold): HDAC6 versus HDAC1; for IC50: same protocol as the HDAC1 test
Method: In order to examine the HDAC6 selectivity of the compounds of formula I of the present invention by HDAC1 and HDAC6 enzymatic activity inhibition assays, an experiment was performed using a conventional substance as a control. HDAC enzyme activity was measured using a HDAC Fluorimetric Drug Discovery Kit (BML-AK511, 516) from Enzo Life Science. For the HDAC1 enzyme activity test, human recombinant HDAC1 (BML-SE456) was used as an enzyme source, and Fluor de Lys®-“SIRT1 (BNL-KI177) was used as a substrate. A 5-fold dilution of the compound was seeded into a 96-well plate, and then 0.3 μg of the enzyme and 10 μM of the substrate were added to each well of the plate and allowed to react at 30° C. for 60 minutes. Then, Fluor de Lys®-Developer II (BML-KI176) was added thereto and allowed to react for 30 minutes, after which the fluorescence value (Ex 360, Em 460) was measured using a multi-plate reader (Flexstation 3, Molecular Device). The HDAC6 enzyme was tested using human recombinant HDAC6 (382180) from Calbiochem, according to the same protocol as the HDAC1 enzyme activity test method. Based on the resulting values, each IC50 value was calculated using GraphPad Prism4.0 program.

Row | Compound | HDAC6 selectivity (fold) | IC50
1 | CCCC(=O)N(Cc1ccc(-c2nnc(C(F)F)o2)cc1F)c1cccc(F)c1 [Compound 11357, N-(4-(5-(difluoromethyl)-1,3,4-oxadiazol-2-yl)-2-fluorobenzyl)-N-(3-fluorophenyl)butyramide] | 1149 fold | 87 nM
2 | CS(=O)(=O)N1CCC(C(=O)N(Cc2ccc(-c3nnc(C(F)F)o3)cc2F)c2ccccc2)CC1 [Compound 11215, N-(4-(5-(difluoromethyl)-1,3,4-oxadiazol-2-yl)-2-fluorobenzyl)-1-(methylsulfonyl)-N-phenylpiperidine-4-carboxamide] | 1667 fold | 60 nM
3 | CC(C)(C)OC(=O)N1CC(C(=O)N(Cc2ccc(-c3nnc(C(F)(F)F)o3)cc2)c2ccccc2)C1 [Compound 11134, tert-butyl 3-(phenyl(4-(5-(trifluoromethyl)-1,3,4-oxadiazol-2-yl)benzyl)carbamoyl)azetidine-1-carboxylate] | 109 fold | 914 nM
4 | CC(=O)N(Cc1ccc(-c2nnc(C(F)F)o2)cc1F)c1ccccc1 [Compound 11247, N-(4-(5-(difluoromethyl)-1,3,4-oxadiazol-2-yl)-2-fluorobenzyl)-N-phenylacetamide] | 1887 fold | 53 nM
5 | CCC(=O)N1CC(C(=O)N(Cc2ccc(-c3nnc(C(F)(F)F)o3)cc2F)c2ccccc2)C1 [Compound 11235, N-(2-fluoro-4-(5-(trifluoromethyl)-1,3,4-oxadiazol-2-yl)benzyl)-N-phenyl-1-propionylazetidine-3-carboxamide] | 1538 fold | 65 nM
6 | O=C(C1CC1)N1CCN(CC(=O)N(Cc2ccc(-c3nnc(C(F)F)o3)cc2F)c2ccc(F)c(Cl)c2)CC1 [Compound 11612, N-(3-chloro-4-fluorophenyl)-2-(4-(cyclopropanecarbonyl)piperazin-1-yl)-N-(4-(5-(difluoromethyl)-1,3,4-oxadiazol-2-yl)-2-fluorobenzyl)acetamide] | 535 fold | 187 nM
7 | O=C(c1ccncc1)N(Cc1ccc(-c2nnc(C(F)(F)F)o2)cc1)c1ccccc1 [Compound 11022, N-phenyl-N-(4-(5-(trifluoromethyl)-1,3,4-oxadiazol-2-yl)benzyl)isonicotinamide] | 427 fold | 234 nM
8 | O=C(c1ccncc1)N(Cc1ccc(-c2nnc(C(F)F)o2)cn1)c1ccccc1 [Compound 11341, N-((5-(5-(difluoromethyl)-1,3,4-oxadiazol-2-yl)pyridin-2-yl)methyl)-N-phenylisonicotinamide] | 2941 fold | 34 nM
9 | CC(C)N1CCC(C(=O)N(Cc2ccc(-c3nnc(C(F)F)o3)cc2F)c2ccccc2)CC1 [Compound 11210, N-(4-(5-(difluoromethyl)-1,3,4-oxadiazol-2-yl)-2-fluorobenzyl)-1-isopropyl-N-phenylpiperidine-4-carboxamide] | 418 fold | 239 nM
10 | CN1CCC(C(=O)N(Cc2ccc(-c3nnc(C(F)(F)F)o3)cc2F)c2ccccc2)CC1 [Compound 11200, N-(2-fluoro-4-(5-(trifluoromethyl)-1,3,4-oxadiazol-2-yl)benzyl)-1-methyl-N-phenylpiperidine-4-carboxamide] | 763 fold | 131 nM
11 | O=C(CN1CCC[C@@H]1CO)N(Cc1ccc(-c2nnc(C(F)F)o2)cc1F)c1ccc(F)c(Cl)c1 [Compound 11537, (R)-N-(3-chloro-4-fluorophenyl)-N-(4-(5-(difluoromethyl)-1,3,4-oxadiazol-2-yl)-2-fluorobenzyl)-2-(2-(hydroxymethyl)pyrrolidin-1-yl)acetamide] | 1429 fold | 70 nM
12 | CN1CC(C(=O)N(Cc2ccc(-c3nnc(C(F)(F)F)o3)cc2)c2ccccc2)C1 [Compound 11138, 1-methyl-N-phenyl-N-(4-(5-(trifluoromethyl)-1,3,4-oxadiazol-2-yl)benzyl)azetidine-3-carboxamide] | 351 fold | 285 nM
13 | CCS(=O)(=O)N1CC(C(=O)N(Cc2ccc(-c3nnc(C(F)F)o3)cc2F)c2cccc(F)c2)C1 [Compound 11334, N-(4-(5-(difluoromethyl)-1,3,4-oxadiazol-2-yl)-2-fluorobenzyl)-1-(ethylsulfonyl)-N-(3-fluorophenyl)azetidine-3-carboxamide] | 2632 fold | 38 nM
14 | CS(=O)(=O)N1CCC(C(=O)N(Cc2ccc(-c3nnc(C(F)(F)F)o3)cc2)c2ccccc2)CC1 [Compound 11165, 1-(methylsulfonyl)-N-phenyl-N-(4-(5-(trifluoromethyl)-1,3,4-oxadiazol-2-yl)benzyl)piperidine-4-carboxamide] | 800 fold | 125 nM
15 | CCN1CCC(C(=O)N(Cc2ccc(-c3nnc(C(F)F)o3)cn2)c2cccc(F)c2)CC1 [Compound 11419, N-((5-(5-(difluoromethyl)-1,3,4-oxadiazol-2-yl)pyridin-2-yl)methyl)-1-ethyl-N-(3-fluorophenyl)piperidine-4-carboxamide] | 3333 fold | 30 nM

The next lines start with the values.

Row | HDAC6 selectivity (fold) | IC50 | Compound
16 | 1111 fold | 90 nM | CC(C)C(=O)N1CC(C(=O)N(Cc2ccc(-c3nnc(C(F)(F)F)o3)cc2)c2ccccc2)C1 [Compound 11158, 1-isobutyryl-N-phenyl-N-(4-(5-(trifluoromethyl)-1,3,4-oxadiazol-2-yl)benzyl)azetidine-3-carboxamide]
17 | 1754 fold | 57 nM | CC(=O)N1CC(C(=O)N(Cc2ccc(-c3nnc(C(F)(F)F)o3)cc2F)c2ccccc2)C1 [Compound 11234, 1-acetyl-N-(2-fluoro-4-(5-(trifluoromethyl)-1,3,4-oxadiazol-2-yl)benzyl)-N-phenylazetidine-3-carboxamide]
18 | 758 fold | 132 nM | CC(=O)N(Cc1ccc(-c2nnc(C(F)(F)F)o2)cc1F)c1ccccc1 [Compound 11246, N-(2-fluoro-4-(5-(trifluoromethyl)-1,3,4-oxadiazol-2-yl)benzyl)-N-phenylacetamide]
19 | 1695 fold | 59 nM | O=C(c1ccncc1)N(Cc1ccc(-c2nnc(C(F)(F)F)o2)cn1)c1ccccc1 [Compound 11584, N-phenyl-N-((5-(5-(trifluoromethyl)-1,3,4-oxadiazol-2-yl)pyridin-2-yl)methyl)isonicotinamide]
20 | 332 fold | 301 nM | CC(C)C(=O)N1CCC(C(=O)N(Cc2ccc(-c3nnc(C(F)(F)F)o3)cc2F)c2ccccc2)CC1 [Compound 11205, N-(2-fluoro-4-(5-(trifluoromethyl)-1,3,4-oxadiazol-2-yl)benzyl)-1-isobutyryl-N-phenylpiperidine-4-carboxamide]
21 | 781 fold | 128 nM | CC(C)C(=O)N1CCC(C(=O)N(Cc2ccc(-c3nnc(C(F)F)o3)cc2F)c2ccccc2)CC1 [Compound 11213, N-(4-(5-(difluoromethyl)-1,3,4-oxadiazol-2-yl)-2-fluorobenzyl)-1-isobutyryl-N-phenylpiperidine-4-carboxamide]
22 | 1235 fold | 81 nM | CCCCN1CC(C(=O)N(Cc2ccc(-c3nnc(C(F)F)o3)cc2F)c2cccc(F)c2)C1 [Compound 11328, 1-butyl-N-(4-(5-(difluoromethyl)-1,3,4-oxadiazol-2-yl)-2-fluorobenzyl)-N-(3-fluorophenyl)azetidine-3-carboxamide]
